Columns and labels:
[1] = target: Alpha-2 adrenergic receptor (Rattus norvegicus); experiment: Displacement of [3H]clonidine from adrenergic alpha-2 receptor in Sprague-Dawley rat cortex
[2] = target: Phenylethanolamine N-methyltransferase (Homo sapiens) (UniProt P11086); experiment: Inhibition of human PNMT by radiochemical assay
[3] = target: T1, Phenylethanolamine N-methyltransferase (Homo sapiens, UniProt P11086); experiment: Inhibition of human PNMT by radiochemical assay
T1 sequence (P11086 whole entry): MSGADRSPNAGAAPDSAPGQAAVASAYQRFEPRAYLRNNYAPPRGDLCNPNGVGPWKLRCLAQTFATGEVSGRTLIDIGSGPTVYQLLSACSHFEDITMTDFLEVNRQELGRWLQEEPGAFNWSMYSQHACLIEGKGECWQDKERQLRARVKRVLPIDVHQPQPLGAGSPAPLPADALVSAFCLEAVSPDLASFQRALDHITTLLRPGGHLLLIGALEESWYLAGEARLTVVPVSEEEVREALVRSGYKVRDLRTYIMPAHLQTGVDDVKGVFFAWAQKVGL

[4] = organism: Homo sapiens; experiment: Selectivity of Ki for human PNMT over Ki for rat alpha2 adrenoceptor

| SMILES | Ki [1] | further results |
| --- | --- | --- |
| CC(=O)c1cc2c(s1)CCNC2 | 9.8 µM |  |
| Cc1cc2c(s1)CCNC2 | 0.49 µM |  |
| CC1Cc2ccc(Br)cc2CN1 (racemic) | 1.1 µM |  |
| C[C@@H]1Cc2sc([N+](=O)[O-])cc2CN1 | 13 µM |  |
| FC(F)(F)C1Cc2sc3ccccc3c2CN1 (stereo not drawn) | > 500 µM |  |
| Cc1ccc2c(c1)CNCC2 |  | Ki [2]: 2 µM |
| NCCc1ccccc1 [PHENETHYLAMINE] |  | Ki [2]: 220 µM |
| C[C@H]1Cc2sc(C#N)cc2CN1 | 130 µM |  |
| C[C@H]1Cc2sc([N+](=O)[O-])cc2CN1 | 29 µM |  |
| NCc1ccsc1 | 32 µM | Ki [3]: 110 µM; Ratio Ki [4]: 0.29 |
| c1ccc2c(c1)CCNC2 [1,2,3,4-TETRAHYDROISOQUINOLINE] |  | Ki [2]: 5 µM |
| CC1CC2SC=CC2CN1 (stereo not drawn) | 29 µM |  |
| CC(=O)c1ccc2c(c1)CNCC2 |  | Ki [2]: 5 µM |
| FC(F)(F)C1CC2SC=CC2CN1 (stereo not drawn) | 1500 µM |  |
| CC1Cc2sc(Br)cc2CN1 (stereo not drawn) | 2.3 µM |  |
| BrC1=CC2CNCCC2S1 (stereo not drawn) | 0.38 µM |  |
| CC1Cc2sc3ccccc3c2CN1 (racemic) |  | Ki [2]: 0.067 µM |
| N#Cc1cc2c(s1)CCNC2 | 16 µM |  |
| NCc1cccs1 | 27 µM | Ki [3]: 450 µM; Ratio Ki [4]: 0.12 |
| O=[N+]([O-])C1=CC2CNCCC2S1 (stereo not drawn) | 18 µM |  |
| NC(=O)c1cc2c(s1)CCNC2 | 4.1 µM |  |
| c1cc2c(s1)CCNC2 | 1.5 µM |  |
| CC1Cc2ccccc2CN1 (racemic) |  | Ki [2]: 1.4 µM |
| FC(F)(F)C1Cc2sc(Br)cc2CN1 (stereo not drawn) | > 1000 µM |  |
| NCCc1cccs1 | 1.2 µM | Ki [3]: 300 µM; Ratio Ki [4]: 0.004 |
| NC(=O)c1ccc2c(c1)CNCC2 |  | Ki [2]: 72 µM |
| C[C@@H]1Cc2sc(C#N)cc2CN1 | 47 µM |  |
